The target in data set [1] is Free fatty acid receptor 1 (Rattus norvegicus, UniProt Q8K3T4). Nature of the data set: Agonist activity at rat GPR40 expressed in HEK293 cells assessed as increase in intracellular Ca2+ flux by Fluo-4-AM dye based FLIPR assay. Format: functional, cell-based. (In general: A change in cytosolic calcium serves as a functional read-out for many receptors and channels.)

Data set [2] can be described thus: Half life in iv or po dosed mouse. Format: ADME, organism-based. The conditions noted are these: in vivo.
A short description of data set [3]: Half life in iv or po dosed dog. In kind it is ADME, organism-based, Canis lupus familiaris. As to conditions: in vivo.
Data set [4] is described as follows: Half life in iv or po dosed rat. Format: ADME, organism-based. As to conditions: in vivo.
A short description of data set [5]: Half life in iv or po dosed monkey. In kind it is ADME, organism-based, Macaca mulatta. The conditions noted are these: rhesus monkey, in vivo.
The nature of data set [6]: Oral bioavailability in mouse. In kind it is ADME, organism-based. As to conditions: in vivo.
Data set [7] can be described thus: Oral bioavailability in rat. In kind it is ADME, organism-based. The conditions noted are these: in vivo.
A short description of data set [8]: Oral bioavailability in dog. Format: ADME, organism-based, Canis lupus familiaris. As to conditions: in vivo.
A short description of data set [9]: Oral bioavailability in monkey. Format: ADME, organism-based, Macaca mulatta. As to conditions: rhesus monkey, in vivo.
In data set [10] the target is T1, Free fatty acid receptor 1 (Homo sapiens, UniProt O14842). Nature of the data set: Agonist activity at human GPR40 expressed in HEK293 cells assessed as increase in intracellular Ca2+ flux by FLIPR assay relative to linoleic acid. In kind it is functional, cell-based.
T1 sequence (O14842 whole entry): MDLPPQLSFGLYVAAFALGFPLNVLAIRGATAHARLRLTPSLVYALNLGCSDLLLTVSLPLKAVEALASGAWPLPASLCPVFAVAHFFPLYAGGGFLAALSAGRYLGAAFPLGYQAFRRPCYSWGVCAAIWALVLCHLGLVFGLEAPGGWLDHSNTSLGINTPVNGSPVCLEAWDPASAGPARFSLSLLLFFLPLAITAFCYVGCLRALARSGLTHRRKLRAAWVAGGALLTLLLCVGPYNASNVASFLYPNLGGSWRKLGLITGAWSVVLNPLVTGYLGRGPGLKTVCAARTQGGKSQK
Data set [11] relates to Rattus norvegicus. Nature of the data set: Antidiabetic activity in po dosed Zucker fa/fa rat assessed as reduction in plasma glucose AUC administered for 21 days measuredon day 21 administered 1 hr prior to glucose challenge measured up to 120 mins post glucose challenge by oral glucose tolerance test. Format: functional.
The subject of data set [12] is Rattus norvegicus. Nature of the data set: Antidiabetic activity in po dosed Zucker fa/fa rat assessed as reduction in plasma glucose AUC administered 1 hr prior to glucose challenge measured up to 120 mins post glucose challenge by oral glucose tolerance test. Format: functional.
The target in data set [13] is T1, Free fatty acid receptor 1. Nature of the data set: Agonist activity at full length recombinant human GPR40 expressed in CHOK1 cells assessed as intracellular IP3 accumulation by fluorescence assay. In kind it is functional, cell-based, CHO-K1.
Data set [14] is described as follows: Antidiabetic activity in ZDF rat assessed as induction of glucose-stimulated insulin secretion. In kind it is functional.
The test system of the next data set is Mus musculus. Nature of the data set: Antidiabetic activity in po dosed albino Balb/c mouse assessed as reduction in plasma glucose AUC administered qd for 3 days measured on day 4 administered 60 mins prior to glucose challenge measured up to 60 mins post glucose challenge by intraperitoneal glucose tolerance test. In kind it is functional.
For data set [15], the target named is T1, Free fatty acid receptor 1. Nature of the data set: Agonist activity at flag-tagged human GPR40 expressed in HEK293 cells assessed as increase in intracellular Ca2+ flux by FLIPR assay. Format: functional, cell-based.
The target in data set [16] is T1, Free fatty acid receptor 1. Nature of the data set: Agonist activity at human GPR40 expressed in CHO cells coexpressing NFAT BLA assessed as increase in intracellular Ca2+ flux by fluo-4-AM dye based FLIPR assay. Format: functional, cell-based.
Data set [17] addresses T1, Free fatty acid receptor 1. Nature of the data set: Agonist activity at human GPR40 expressed in CHOK cells assessed as increase in intracellular Ca2+ flux by Fluo-4 based assay. Format: functional, cell-based.
A short description of data set [18]: Half life in human. Format: ADME.

This note sets out measurements from ChEMBL document CHEMBL3867481, “GPR40 agonists for the treatment of type 2 diabetes mellitus: The biological characteristics and the chemical space” (Bioorg Med Chem Lett, 2016).

Sequence of Free fatty acid receptor 1 (Rattus norvegicus, UniProt Q8K3T4) (Q8K3T4 whole entry): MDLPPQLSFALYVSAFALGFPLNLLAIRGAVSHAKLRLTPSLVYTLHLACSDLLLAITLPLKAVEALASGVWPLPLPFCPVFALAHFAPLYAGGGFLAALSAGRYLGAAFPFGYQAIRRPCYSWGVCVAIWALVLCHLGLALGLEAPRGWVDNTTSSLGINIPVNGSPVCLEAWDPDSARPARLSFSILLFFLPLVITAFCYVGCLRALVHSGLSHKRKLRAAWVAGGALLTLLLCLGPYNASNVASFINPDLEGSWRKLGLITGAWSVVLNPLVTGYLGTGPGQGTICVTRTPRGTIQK

On to `O=C(O)CCc1ccc2oc(Nc3c(Cl)c(Cl)cc(Cl)c3Cl)nc2c1`, for which the EC50 in [1] came to 630 nM.

`CC#C[C@@H](CC(=O)O)c1ccc(OCc2cccc(-c3ccc(C(F)(F)F)cc3)c2)cc1`: the half-life in data set [2], in [3], in [4] and in data set [5] was 7.2 to 28 h each time. In addition, the bioavailability in data set [6], in data set [7], in [8] and in [9] was 67 to 100% throughout.

With `CC#C[C@@H](CC(=O)O)c1ccc(OCc2ccc3nc(-c4c(C)cccc4C)nn3c2)cc1`, the Emax in data set [10] is 76%. Moreover, the figures for the ED90 with Rattus norvegicus [11] and in the data set on Rattus norvegicus [12] were 5 mg/kg and 4.1 mg/kg, respectively.

For `Cc1cc(OCC2CCOC2)cc(C)c1-c1cccc(COc2ccc(C3(CC(=O)O)COC3)cc2)c1` (stereo not given), the EC50 in [13] is less than 100 nM.

As for `CC#C[C@@H](CC(=O)O)c1ccc(NC(=O)C(=O)Nc2cccc(C(C)(C)C)c2)cc1`, in data set [1], the EC50 was determined as 0.4 nM. For the same compound, the MED in data set [14] turned out to be 1 mg/kg.

With `CC#C[C@@H](CC(=O)O)c1ccc(OCc2ccc(CN3CCCc4cccc(OC)c43)s2)cc1`, the ED50 in the data set on Mus musculus is 1 mg/kg.

In the case of `COc1ccc(F)c(-c2ccc(Cc3cccc(N4C[C@H](c5cccc(Cl)c5)C[C@@H]4CC(=O)O)c3)c(C)c2)c1`, the EC50 in data set [15] amounted to 10 nM.

As for `Cc1cc(OC[C@H]2COC(C)(C)O2)cc(C)c1-c1cccc(COc2ccc(-c3cc(O)no3)cc2)c1C`, in data set [16], the EC50 is less than 300 nM.

`CCOc1ccc(F)c(N2CC[C@@H](Oc3cnc(N4CC(OC)[C@@H](C)[C@@H]4CC(=O)O)cn3)[C@H](C)C2)c1` (stereo not given in full): in data set [15], the EC50 was determined as 42 nM.

Consider `Cc1cc(OCCC(C)O)cc(C)c1-c1ccc(F)c(COc2cc3c(cn2)[C@@H]2C(C(=O)O)[C@@H]2C3)c1` (stereo not given in full), for which the EC50 in [16] is 13 nM.

On to `CO/N=C(\COc1ccc(COc2ccc(C(C#N)CC(=O)O)cc2)cc1)c1ccc(F)cc1` (stereo not given), for which the EC50 in [17] is less than 10 nM.

In the case of `Cc1cc(OCCCS(C)(=O)=O)cc(C)c1-c1cccc(COc2ccc3c(c2)OC[C@H]3CC(=O)O)c1`, the half-life in data set [18] is 28 to 30 h.

`COc1ccc(C)c(N2CC[C@@H](Oc3ccc(N4N=C(C(F)(F)F)[C@@H](C)[C@@H]4CC(=O)O)cc3)[C@H](C)C2)c1`: the EC50 in data set [15] amounted to 71 nM.

With `CC#C[C@@H](CC(=O)O)c1ccc(OCCOc2cccc(Cl)c2)cc1`, in [1], the EC50 amounted to 10 nM.

Consider `Cc1cc(OCCO)ccc1-c1cccc(COc2ccc(Cn3oc(=O)[nH]c3=O)cc2)c1`, for which, in data set [16], the EC50 came out at 380 nM.

In general, EC50 refers to the concentration needed to bring the measured effect to its halfway point. For orientation: half-life means the time needed for the level to fall by half in the phase considered. Usually bioavailability stands for the share of a dose that reaches the circulation, judged against a reference dose that is usually intravenous. Usually Emax stands for the greatest response seen or fitted, relative to the assay's reference. What is called ED50 is the midpoint of the dose-response relation.
